Earlier results, collected in publication PMC11748363, “Antimicrobial and Antiproliferative Properties of 2‐Phenyl‐N‐(Pyridin‐2‐yl)acetamides” (Chemical Biology & Drug Design, 2025).
Values after ≈ are worked out from the molar mass of the structure shown.

Test system: Mycobacterium tuberculosis H37Ra
Parameters: method as in Nawrot et al. 2021
Settings: previously published N‐pyridinyl benzamides; ref Nawrot et al. 2021; cited from earlier work

Structure (SMILES) | MIC Mtb H37Ra (μg/mL), previously published compounds
O=C(Nc1ccc(Cl)cn1)c1ccccc1Cl [C00003 R1=5-Cl,R2=2-Cl] | > 500 µg/mL
COc1ccccc1C(=O)Nc1ccc(Cl)cn1 [C00003 R1=5-Cl,R2=2-OMe] | 31.25 µg/mL (≈ 119 µM)
O=C(Nc1ccc(Cl)cn1)c1cccc(C(F)(F)F)c1 [C00003 R1=5-Cl,R2=3-CF3] | 7.81 µg/mL (≈ 26 µM)
O=C(Nc1ccc(Cl)cn1)c1cccc(Cl)c1 [C00003 R1=5-Cl,R2=3-Cl] | 31.25 µg/mL (≈ 117 µM)
COc1cccc(C(=O)Nc2ccc(Cl)cn2)c1 [C00003 R1=5-Cl,R2=3-OMe] | 62.5 µg/mL (≈ 238 µM)
O=C(Nc1ccc(Cl)cn1)c1ccc(Cl)cc1 [C00003 R1=5-Cl,R2=4-Cl] | > 500 µg/mL
COc1ccc(C(=O)Nc2ccc(Cl)cn2)cc1 [C00003 R1=5-Cl,R2=4-OMe] | 62.5 µg/mL (≈ 238 µM)
O=C(Nc1ccc(Cl)cn1)c1ccccc1 [C00003 R1=5-Cl,R2=H] | > 500 µg/mL
O=C(Nc1cccc(Cl)n1)c1ccccc1Cl [C00003 R1=6-Cl,R2=2-Cl] | 62.5 µg/mL (≈ 234 µM)
COc1ccccc1C(=O)Nc1cccc(Cl)n1 [C00003 R1=6-Cl,R2=2-OMe] | > 500 µg/mL
O=C(Nc1cccc(Cl)n1)c1cccc(C(F)(F)F)c1 [C00003 R1=6-Cl,R2=3-CF3] | 7.81 µg/mL (≈ 26 µM)
O=C(Nc1cccc(Cl)n1)c1cccc(Cl)c1 [C00003 R1=6-Cl,R2=3-Cl] | 15.625 µg/mL (≈ 58.5 µM)
